Experimental data: publication PMC9635829 (Science Advances, 2022)

What was measured:
OdinAK (AdkA1) [1] = target: T1, OdinAK (AdkA1) (Candidatus Odinarchaeum yellowstonii, UniProt A0AAF0D2B2); assay: ITC; assay type: binding
T1 sequence (A0AAF0D2B2 1-198): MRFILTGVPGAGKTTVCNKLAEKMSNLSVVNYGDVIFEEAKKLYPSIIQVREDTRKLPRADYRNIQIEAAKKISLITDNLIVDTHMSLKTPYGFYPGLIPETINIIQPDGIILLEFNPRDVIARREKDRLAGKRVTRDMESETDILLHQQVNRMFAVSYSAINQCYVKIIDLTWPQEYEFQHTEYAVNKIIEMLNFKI

OdinAK (AdkA1) [2] = target: T1, OdinAK (AdkA1); assay: […] real-time NMR; assay type: biochemical; conditions: 65 °C, 1 mM ATP (or other NTP), 300 μM AMP, 5 mM MgCl2, pH 7.0
OdinAK (AdkA1) [3] = target: T1, OdinAK (AdkA1); assay: X-ray crystal structure; assay type: binding; conditions: ATP/AMP-mimicking inhibitor, spans both substrate sites
[4] = target: adenylate kinase from Odinarchaeota (OdinAK), wild type (Odinarchaeota); assay: SEC-MALS

Row | Compound | Kd (OdinAK (AdkA1) [1]) [µM] | other results
1 | Nc1ccn([C@@H]2O[C@H](COP(=O)(O)OP(=O)(O)OP(=O)(O)O)[C@@H](O)[C@H]2O)c(=O)n1 [CTP] | 28.7 ± 7 | –
2 | Nc1ncnc2c1ncn2[C@@H]1O[C@H](COP(=O)(O)O)[C@@H](O)[C@H]1O [AMP] | – | 31P real-time NMR (OdinAK (AdkA1) [2]): OdinAK can use GTP and all other NTPs as substrate for phosphorylation of AMP
3 | Nc1ncnc2c1ncn2[C@@H]1O[C@H](COP(=O)(O)OP(=O)(O)O)[C@@H](O)[C@H]1O [ADP] | 0.8 ± 0.1 | –
4 | Nc1ncnc2c1ncn2[C@@H]1O[C@H](COP(=O)(O)OP(=O)(O)OP(=O)(O)O)[C@@H](O)[C@H]1O [ATP] | 0.3 ± 0.1 | –
5 | Nc1ncnc2c1ncn2[C@@H]1O[C@H](COP(=O)(O)OP(=O)(O)OP(=O)(O)OP(=O)(O)OP(=O)(O)OC[C@H]2O[C@@H](n3cnc4c(N)ncnc43)[C@H](O)[C@@H]2O)[C@@H](O)[C@H]1O [Ap5A, P^1,P^5-di(adenosine-5′) pentaphosphate] | – | X-ray crystal structure (OdinAK (AdkA1) [3]): we determined the crystal structure of the enzyme in complex with the tight binding
6 | adenylate kinase from Odinarchaeota (OdinAK), wild type (enzyme) | – | stoichiometry N [4]: 3

Second part, led by results:

Row | Kd (OdinAK (AdkA1) [1]) [µM] | Compound | other results
7 | 24.2 ± 8 | Cc1cn([C@H]2C[C@H](O)[C@@H](COP(=O)(O)OP(=O)(O)OP(=O)(O)O)O2)c(=O)[nH]c1=O [dTTP] | –
8 | 7.2 ± 0.6 | Nc1nc2c(ncn2[C@@H]2O[C@H](COP(=O)(O)OP(=O)(O)OP(=O)(O)O)[C@@H](O)[C@H]2O)c(=O)[nH]1 [GTP] | –
9 | 4.6 ± 0.5 | O=c1ccn([C@@H]2O[C@H](COP(=O)(O)OP(=O)(O)OP(=O)(O)O)[C@@H](O)[C@H]2O)c(=O)[nH]1 [UTP] | –
